How the values were obtained:
SHV-5 β-lactamase = target: T1, SHV-5 β-lactamase (Klebsiella pneumoniae, UniProt P0A3M1); assay: β-lactamase enzyme inhibition, SHV-5; assay type: biochemical
T1 construct: made in house; host or cells: E. coli BL21(DE3)
Procedure: (§1) For SHV-5, Kpc-2, p99AmpC and OXA-1 β-lactamases, E. coli BL21(DE3) bacterial cells carrying expression plasmids (expressed as native untagged proteins) for the individual β-lactamases were grown in 1 L of Superbroth (Teknova Inc. Hollister, Calif.) supplemented with 100 μg/ml kanamycin selection and 1×5052 (0.5% glycerol, 0.05% glucose and 0.2% α-lactose) at 35° C. for 18-20 hours. Cells were harvested by centrifugation (4,000×g, 4° C., 20 min), resuspended in 50 ml of 10 mM HEPES pH 7.5 ( 1/20 of the initial volume). The cells were lysed by sonication (5 pulses of 45 seconds) at 45 W on ice. The lysates were clarified by centrifugation at 10,000×g for 40 minutes at 4° C. Samples were diluted 5-fold in 50 mM sodium acetate pH 5.0, stored overnight at 4° C., after which they were centrifuged at 10,000×g for 30 minutes to clarify, and filtered through 0.45 μm filters. The samples were loaded onto a 5 ml Capto S sepharose cation exchange column (GE Healthcare) pre-equilibrated with 50 mM sodium acetate pH 5.0. The column was washed with 5 column volumes of 50 mM sodium acetate pH 5.0 to wash out unbound protein and a linear gradient of NaCl (0 to 500 mM) was used to elute the protein (over 16 CV) from the column. Fractions were assayed for […] activity using Centa (Calbiochem, Gibbstown, N.J.) or Nitrocefin (EMD Millipore chemicals, Darmstadt, Germany) as a reporter β-lactamase substrate for activity in the isolated fractions. Active fractions were pooled, concentrated and further purified by gel filtration chromatography on a Superdex 75 prep grade gel filtration column (GE Healthcare, Piscataway, N.J.) pre-equilibrated in 50 mM Hepes pH 7.5, 150 mM NaCl. Active fractions were pooled, concentrated, and quantitated by BCA protein determination (Thermo Scientific, Rockford, Ill.), dialyzed into PBS and frozen at −80° C. in 20% glycerol until use.
(§2) An equal volume of diluted enzyme stock was added, and the plates were incubated at 37° C. for 15 min. Nitrocefin was used as substrate for p99 AmpC, VIM-2 and OXA-1 and dispensed into each well at a final concentration of 100 μM. Absorbance at 486 nm was immediately monitored for 10 min using a Biotek Powerwave XS2 microplate spectrophotometer using the GEN5 software package (Biotek Instruments, Winooski Vt.). In an analogous fashion, imipenem was used as substrate for KPC-2 and Cefotaxime was used for SHV-5, while changes in absorbance upon hydrolysis of the β-lactam ring were monitored at 300 nm and 260 nm respectively in UV-transparent 96-well microtiter assay plates. Maximum rates of hydrolysis were compared to those in control wells (without inhibitors), and percentages of enzyme inhibition were calculated for each concentration of inhibitor. The concentration of inhibitor needed to reduce the initial rate of hydrolysis of substrate by 50% (IC50) was calculated as the residual activity of β-lactamase at 486 nm using GraFit version 7 kinetics software package (Erithacus Software, Surrey, UK).
(§3) Using the methodology described above, examples of the current invention were evaluated for their ability to inhibit β-lactamase enzymes from all four Ambler classifications (A through D). […] NT=Not tested.

KPC-2 β-lactamase = target: T2, KPC-2 β-lactamase (Klebsiella pneumoniae, UniProt Q9F663); assay: β-lactamase enzyme inhibition, KPC-2; assay type: biochemical; conditions: imipenem substrate, 300 nm; 15 min at 37° C. preincubation; read-out: IC50 KPC-2 (Class A)
T2 construct: made in house; host or cells: E. coli BL21(DE3)
T2 sequence (Q9F663 25-293, looked up): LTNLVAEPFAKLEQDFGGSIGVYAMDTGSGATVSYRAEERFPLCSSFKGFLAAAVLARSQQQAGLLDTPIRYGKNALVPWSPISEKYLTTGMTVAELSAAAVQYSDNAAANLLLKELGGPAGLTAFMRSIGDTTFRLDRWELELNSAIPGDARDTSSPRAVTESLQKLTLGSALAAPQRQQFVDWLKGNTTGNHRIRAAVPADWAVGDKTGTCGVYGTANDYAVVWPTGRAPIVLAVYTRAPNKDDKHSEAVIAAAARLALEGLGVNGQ
Procedure: as §1, §2, §3

[1] = target: T3, VIM-2 metallo β-lactamase (Pseudomonas aeruginosa, UniProt Q9K2N0); assay: β-lactamase enzyme inhibition, VIM-2; assay type: biochemical; conditions: Nitrocefin 100 μM, 486 nm; 15 min at 37° C. preincubation; read-out: IC50 VIM-2 (Class B)
T3 construct: made in house; host or cells: E. coli BL21(DE3)
Procedure: For VIM-2 metallo β-lactamase, the procedure was identical with the following exceptions, first the protein was not pH adjusted to pH 5 with 50 mM sodium acetate. Second, the chromatography step was changed to a 5 ml Q sepharose anion exchange column pre-equilibrated with 50 mM Hepes pH 7.5, and elution of the protein was achieved by a linear gradient of NaCl (0-600 mM). Finally, the VIM-2 purification required a second run (3rd step) on the Q sepharose anion exchange column to achieve acceptable purity (>90%).
as §2, §3

p99 AmpC β-lactamase = target: T4, p99 AmpC β-lactamase (Enterobacter cloacae, UniProt P05364); assay: β-lactamase enzyme inhibition, p99 AmpC; assay type: biochemical
T4 construct: made in house; host or cells: E. coli BL21(DE3)
T4 sequence (P05364 21-381): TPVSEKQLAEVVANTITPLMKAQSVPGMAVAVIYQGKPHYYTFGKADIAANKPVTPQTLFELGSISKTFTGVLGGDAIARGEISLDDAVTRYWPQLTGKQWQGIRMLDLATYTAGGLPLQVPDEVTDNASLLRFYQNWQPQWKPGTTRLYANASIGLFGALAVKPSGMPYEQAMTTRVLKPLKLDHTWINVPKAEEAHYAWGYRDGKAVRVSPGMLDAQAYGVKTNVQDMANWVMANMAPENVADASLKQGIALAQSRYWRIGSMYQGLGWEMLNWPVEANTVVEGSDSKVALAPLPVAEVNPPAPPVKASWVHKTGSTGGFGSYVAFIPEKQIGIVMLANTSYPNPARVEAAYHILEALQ
Procedure: as §1, §2
Using the methodology described above, examples of the current invention were evaluated for their ability to inhibit β-lactamase enzymes from all four Ambler classifications (A through D).

OXA-1 β-lactamase = target: T5, OXA-1 β-lactamase (Escherichia coli, UniProt P13661); assay: β-lactamase enzyme inhibition, OXA-1; assay type: biochemical; conditions: Nitrocefin 100 μM, 486 nm; 15 min at 37° C. preincubation; read-out: IC50 OXA-1 (Class D)
T5 construct: made in house; host or cells: E. coli BL21(DE3)
T5 sequence (P13661 26-276): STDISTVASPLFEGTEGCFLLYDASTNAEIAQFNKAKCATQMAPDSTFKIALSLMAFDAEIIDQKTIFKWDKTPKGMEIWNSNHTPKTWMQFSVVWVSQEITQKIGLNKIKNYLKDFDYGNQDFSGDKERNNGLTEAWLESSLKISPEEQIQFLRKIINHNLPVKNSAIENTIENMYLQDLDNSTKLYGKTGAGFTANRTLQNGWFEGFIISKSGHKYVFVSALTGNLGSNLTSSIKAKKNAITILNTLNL
Procedure: as §1, §2, §3

[2] = test system: E. coli ESBL4 expressing CTX-M-15; assay: broth microdilution MIC, E. coli CTX-M-15; assay type: cell-based; conditions: Fixed CAZ (ceftazidime) 4 μg/mL
Text: (§4) To determine the ability of test compounds to potentiate the inhibition of the growth of bacterial strains that produce beta-lactamase enzymes, classic cell based broth microdilution MIC assays were employed. Six bacteria strains producing beta-lactamase enzymes were used: E. coli expressing the Class A Extended Spectrum Beta-Lactamase (ESBL) CTX-M-15, E. cloacae expressing the Class C P99, K. pneumoniae expressing the Class A carbapenemase KPC-3, P. aeruginosa expressing the Class B carbapenemase VIM-2, K pneumoniae expressing the class A carbapenemase KPC-2 and the class B carbapenemase VIM-4, and S. aureus producing the Class A penicillinase PC-1. The assay was conducted in Cation Adjusted Mueller Hinton Broth (CAMHB, BD #212322, BD Diagnostic Systems, Sparks, Md.). Bacteria strains were grown for 3-5 hours in CAMBH broth. Test compounds were added to a microtiter plate in 2-fold serial dilutions in CAMHB in a final concentration range of 32 μg/mL to 0.25 μg/ml. An overlay of CAMHB containing a Beta-lactam was added to the compounds at a final static concentration of 4 μg/ml. […] In addition to the titration of test compounds the MICs of a panel of control beta-lactams is also tested to ensure the strains are behaving consistently from test to test. Once the test compound and antibiotics are added the plates can be inoculated according to CLSI broth microdilution method. After inoculation the plates are incubated for 16-20 hours at 37° C., then the Minimal Inhibitory Concentration (MIC) of the test compound is determined visually.
(§5) Using the methodology described above, examples of the current invention were evaluated for their ability to inhibit the growth of β-lactamase-producing bacteria in the presence of a β-lactam antibiotic.
(§6) Representative results are shown in Table 4 where A represents an MIC of the fixed β-lactam antibiotic in the presence of >32 µg/mL of a β-lactamase inhibitor of exemplary compounds, B represents the MIC in the presence of between 8 and 32 µg/mL of a β-lactamase inhibitor of exemplary compounds, and C represents the MIC in the presence of ≤4 µg/mL of a β-lactamase inhibitor of exemplary compounds. NT=Not Tested.

[3] = test system: E. cloacae 144200 expressing Class C P99 AmpC; assay: broth microdilution MIC, E. cloacae P99; assay type: cell-based; conditions: Fixed CAZ (ceftazidime) 4 μg/mL
Text: as §4, §5, §6

[4] = test system: K. pneumoniae 156319 expressing KPC-3; assay: broth microdilution MIC, K. pneumoniae KPC-3; assay type: cell-based; conditions: Fixed Mero (meropenem) 4 μg/mL
Text: as §4, §5, §6

[5] = test system: K. pneumoniae A-1797 expressing KPC-2 and VIM-4; assay: broth microdilution MIC, K. pneumoniae KPC-2 and VIM-4; assay type: cell-based; conditions: Fixed Mero (meropenem) 4 μg/mL
Text: as §4, §5, §6

T1 sequence (P0A3M1 22-286): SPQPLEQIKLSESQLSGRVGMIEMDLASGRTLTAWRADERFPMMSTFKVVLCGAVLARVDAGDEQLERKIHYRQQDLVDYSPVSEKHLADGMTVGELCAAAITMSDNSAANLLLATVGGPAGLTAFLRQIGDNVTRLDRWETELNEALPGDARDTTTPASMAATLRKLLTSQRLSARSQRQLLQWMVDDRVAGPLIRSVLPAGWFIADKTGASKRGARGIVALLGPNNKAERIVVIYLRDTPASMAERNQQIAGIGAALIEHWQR

| SMILES | IC50 (SHV-5 β-lactamase) [nM] | IC50 (KPC-2 β-lactamase) [nM] | IC50 [1] [nM] | IC50 (p99 AmpC β-lactamase) [nM] | IC50 (OXA-1 β-lactamase) [nM] | MIC of exemplary compounds in presence of fixed β-lactams, E. coli ESBL4 CTX-M-15 [2] | MIC of exemplary compounds in presence of fixed β-lactams, E. cl. 144200 p99 AmpC [3] | MIC of exemplary compounds in presence of fixed β-lactams, K.P. 156319 KPC-3 [4] | MIC of exemplary compounds in presence of fixed β-lactams, K.P. A-1797 KPC-2 VIM-4 [5] |
| --- | --- | --- | --- | --- | --- | --- | --- | --- | --- |
| N#CCCC(=O)N[C@H]1Cc2cc(F)c(F)c(C(=O)O)c2OB1O [Example 49, (R)-3-(3-Cyano-propionylamino)-6,7-difluoro-2-hydroxy-3,4-dihydro-2H-benzo[e][1,2]oxaborinine-8-carboxylic acid] | < 100 | < 100 | 1000 to 10000 | 100 to 1000 | < 100 | C (C represents the MIC in the presence of ≤4 g/mL of a β-lactamase inhibitor) | C (C represents the MIC in the presence of ≤4 g/mL of a β-lactamase inhibitor) | C (C represents the MIC in the presence of ≤4 g/mL of a β-lactamase inhibitor) | B (B represents the MIC in the presence of between 8 and 32 g/mL of a β-lactamase inhibitor) |
| CC(=O)CCC(=O)N[C@H]1Cc2ccc(F)c(C(=O)O)c2OB1O [Example 47, (R)-7-Fluoro-2-hydroxy-3-(4-oxo-pentanoylamino)-3,4-dihydro-2H-benzo[e][1,2]oxaborinine-8-carboxylic acid] | < 100 | < 100 | < 100 | < 100 | < 100 | C (C represents the MIC in the presence of ≤4 g/mL of a β-lactamase inhibitor) | C (C represents the MIC in the presence of ≤4 g/mL of a β-lactamase inhibitor) | C (C represents the MIC in the presence of ≤4 g/mL of a β-lactamase inhibitor) | C (C represents the MIC in the presence of ≤4 g/mL of a β-lactamase inhibitor) |
| CC(C)(C)C(=O)CCC(=O)N[C@H]1Cc2cccc(C(=O)O)c2OB1O [Example 40, (R)-3-(5,5-Dimethyl-4-oxo-hexanoylamino)-2-hydroxy-3,4-dihydro-2H-benzo[e][1,2]oxaborinine-8-carboxylic acid] | < 100 | < 100 | 1000 to 10000 | < 100 | < 100 | C (C represents the MIC in the presence of ≤4 g/mL of a β-lactamase inhibitor) | C (C represents the MIC in the presence of ≤4 g/mL of a β-lactamase inhibitor) | B (B represents the MIC in the presence of between 8 and 32 g/mL of a β-lactamase inhibitor) | B (B represents the MIC in the presence of between 8 and 32 g/mL of a β-lactamase inhibitor) |
| NC(=O)NCC(=O)N[C@H]1Cc2cccc(C(=O)O)c2OB1O [Example 36, (R)-2-Hydroxy-3-(2-ureido-acetylamino)-3,4-dihydro-2H-benzo[e][1,2]oxaborinin-8-carboxylic acid] | < 100 | 100 to 1000 | 100 to 1000 | < 100 | < 100 | C (C represents the MIC in the presence of ≤4 g/mL of a β-lactamase inhibitor) | C (C represents the MIC in the presence of ≤4 g/mL of a β-lactamase inhibitor) | C (C represents the MIC in the presence of ≤4 g/mL of a β-lactamase inhibitor) | C (C represents the MIC in the presence of ≤4 g/mL of a β-lactamase inhibitor) |
| CC(=O)/C=C/C(=O)N[C@H]1Cc2cccc(C(=O)O)c2OB1O [Example 39, (R)-2-Hydroxy-3-(4-oxo-pent-2-enoylamino)-3,4-dihydro-2H-benzo[e][1,2]oxaborinine-8-carboxylic acid] | < 100 | < 100 | 100 to 1000 | < 100 | < 100 | C (C represents the MIC in the presence of ≤4 g/mL of a β-lactamase inhibitor) | C (C represents the MIC in the presence of ≤4 g/mL of a β-lactamase inhibitor) | B (B represents the MIC in the presence of between 8 and 32 g/mL of a β-lactamase inhibitor) | B (B represents the MIC in the presence of between 8 and 32 g/mL of a β-lactamase inhibitor) |

Reference: patent publication US11008346B2, “Beta-lactamase inhibitors” (priority 2014, dated 2021)
